“And” between values parts separate entries of the source, which are not always exact repeats. Equal entries are not always repeated.
How the values were obtained:
[1] = test system: BT 549; experiment: MTT assay, carboplatin cytotoxicity; assay type: cell-based, human; settings: 72 hours
Procedure: (§1) Six breast cancer cell lines were tested. […] The cell lines were purchased from ATCC, and cultured in the recommended media. IC50 values were determined for each cell line using the MTT assay (Henderson et al., International Journal of Cancer 2011) after incubating cells for 72 hours with different concentrations of carboplatin. [^14C] carboplatin (53 mCi/mmol) was purchased from the GE Healthcare (Waukesha, Wis.) and further purified at Moravek Biochemical (Brea, Calif.). Unlabeled carboplatin (USP Pharmaceutical Grade) was used to minimize the usage of radiocarbon and achieve the specific activities required for microdoses and therapeutic doses.

[2] = test system: Hs 578T; experiment: MTT assay, carboplatin cytotoxicity; assay type: cell-based, human; settings: 72 hours
Procedure: as §1

[3] = test system: MCF-7; experiment: MTT assay, carboplatin cytotoxicity; assay type: cell-based, human; settings: 72 hours
Procedure: as §1

[4] = test system: MDA MB 231; experiment: MTT assay, carboplatin cytotoxicity; assay type: cell-based, human; settings: 72 hours
Procedure: as §1

[5] = test system: MDA MB 468; experiment: MTT assay, carboplatin cytotoxicity; assay type: cell-based, human; settings: 72 hours
Procedure: as §1

[6] = test system: T47D; experiment: MTT assay, carboplatin cytotoxicity; assay type: cell-based, human; settings: 72 hours
Procedure: as §1

[7] = test system: A549 tumor xenografts; experiment: DNA repair: monoadducts remaining in excised xenograft tumor; assay type: in vivo, mice; settings: tumor excised 4 h after microdose, 8 hours in carboplatin-free medium
Procedure: (§2) DNA repair rates in the xenograft tumor cells were also observed to correlate with carboplatin resistance. This is exemplified by the measurement of DNA repair in the A549 and H232A tumor xenografts (FIG. 10D). Four hours after a microdose was administered to three mice each with A549 and H232A tumor xenografts, the animals were sacrificed and tumors were excised. Tissue from each tumor was minced with a scalpel and washed with PBS. Half of the sample was frozen immediately (control) and half was incubated in cell culture medium (no carboplatin) for 8 hours prior to storage. DNA was extracted from the two sets of experiments and analyzed for carboplatin-DNA monoadducts. The resistant A549 cell line had 4±3% of the carboplatin-DNA monoadducts remaining compared to the control, whereas 56±8% of the monoadducts persisted for the drug sensitive H23 cells.

[8] = test system: H232A tumor xenografts; experiment: as above; assay type: in vivo, mice; settings: H23; tumor excised 4 h after microdose, 8 hours in carboplatin-free medium
Procedure: as §2

[9] = test system: PBMC; experiment: microdose-induced carboplatin-DNA monoadducts in patients; assay type: in vivo, human; settings: for 4 h adducts PBMC / 24 h adducts PBMC: microdose; for lowest DNA monoadduct level observed: first nineteen patients, microdose 1% of therapeutic dose
Procedure: Based upon the previous mouse studies that identified a minimal microdose for accurate AMS analysis of carboplatin monoadducts (1% of therapeutic carboplatin containing 50,000 DPM/gm of mouse body weight), the first in-human evaluation of microdose [^14C]carboplatin was conducted at this same equivalent formulation. The mouse radioactive dose (50,000 DPM/gm), adjusted for body surface area differences between mouse and humans, is equivalent to a dose of 1.0×10^7 DPM/kg of human body weight. The carboplatin dose for human chemotherapy is personalized to a patient's size and kidney function and is calculated using the Calvert formula with an AUC of 6 (Calvert, A. H., et al. “Carboplatin dosage: prospective evaluation of a simple formula based on renal function.” Journal of Clinical Oncology 7.11 (1989): 1748-1756). […] After blood collection, the BD Vacutainer CPT™ tubes were gently inverted several times to ensure mixing with heparin anticoagulant. The tubes were immediately placed on ice or stored at 4° C. and_then processed within 2 hours of collection to separate plasma and PBMC. For processing, the blood filled BD Vacutainer CPT™ tubes were centrifuged at room temperature in a horizontal rotor for 25 minutes at 1600×g. The top plasma layer was transferred to separate tubes and stored at or below −70° C. After most of the plasma was removed from the CPT tube, PBMC were transferred to another tube and washed three times with ice-cold phosphate-buffered solution (PBS). After pelleting the cells and removing the supernatant, the PBMC's were stored frozen at −80° C. until being processed to isolate DNA for determination of the carboplatin-DNA monoadduct frequency. Tumor samples were collected by biopsy or resection approximately 24 hours after administration of the [^14C]carboplatin microdose. These tumor specimens were placed in ice immediately after being obtained, washed three times with ice-cold PBS, and stored at or below −20° C. within 2 hours of collection. These frozen tumor samples were then processed at a later time to isolate DNA for determination of the carboplatin-DNA monoadduct frequency. To isolate DNA, tumor tissue was placed on ice in a sterile petri dish and minced with a sterile scalpel for approximately 30-90 sec per sample. Approximately 20-100 mg of tissue was then processed using the modified Wizard DNA isolation protocol as described previously.
Two lung and three bladder cancer patients were monitored post carboplatin therapeutic treatment to determine therapeutic outcome. Each patient was given a microdose of [^14C]carboplatin by IV injection. The microdose was 1% of therapeutic based upon Calvert calculation and formulated with [^14C]carboplatin at 1.0×10^7 DPM/kg of body weight. At time points of 2, 4, 8 and 24 hours, blood samples were taken from which PBMCs were isolated determination of carboplatin-DNA monoadduct frequency, and expressed as carboplatin-DNA monoadducts per 10^8 nucleotides (FIG. 13).
As we have shown in cell culture and mouse tumor xenograph experiments, the carboplatin-DNA monoadduct frequency is proportional to the dose and time integrated exposure to carboplatin. In this example we establish the useful range of carboplatin-DNA monoadduct frequencies in cancer patients receiving 1% of their therapeutic dose of carboplatin at a fixed time after microdose exposure. […] DNA from PBMC and tumor tissue was extracted and analyzed by AMS for carboplatin-DNA monoadduct frequency. […] Tumor carboplatin-DNA monoadduct frequencies ranged from 0.3 and 42.5 adducts per 10^8 nucleotides.

[10] = sterile solution in water
Procedure: Radiolabeled carboplatin containing C^14 carbon atoms in the cyclobutane dicarboxylic acid group was formulated for human use as a sterile, pyrogen free solution at 5 mg/mL in water.

[11] = safety of radiolabeled microdose in patients; settings: IV microdose, 1% of the therapeutic dose
Procedure: Microdoses of the [^14C]Carboplatin were administered to human cancer patients as a diagnostic reagent, followed by full dose platinum-based chemotherapy and evaluation of response. Within four weeks of the [^14C]carboplatin microdose, these patients received standard of care chemotherapy for their disease, which included either carboplatin or cisplatin. The patient population consisted of non-small cell lung cancer patients (NSCLC), stage IV with measurable lesions, and bladder transitional cell carcinoma (TCC) patients, stage II disease and above for neoadjuvant treatment, or stage III and IV metastatic disease with measurable lesions for palliative chemotherapy. Patients were identified for this study as having measurable lesions using the Response Evaluation Criteria in Solid Tumor (RECIST), an Eastern Cooperative Oncology Group performance status of <2, and adequate bone marrow and vital organ function. PBMC and tumor tissue were collected from the patients for analysis of carboplatin-DNA monoadduct frequencies. Toxicity of the [^14C]carboplatin diagnostic reagent administered as a microdose was assessed using Common Terminology Criteria for Adverse Events (CTCAE). Toxicities of grade 3 and above were also collected for patient specific toxic response to full dose chemotherapy for correlation analysis to carboplatin-DNA monoadduct frequency. Patient response to chemotherapy was evaluated using the RECIST for correlation to carboplatin-DNA monoadduct frequency.
The dose of carboplatin in the diagnostic microdose was chosen to be sub-toxic and non-therapeutic, to minimize patient chemical and radiation exposure, and to result in AMS measurable carboplatin-DNA monoadducts. Nineteen patients have been administered at least one microdose of [^14C]carboplatin via IV infusion as a diagnostic reagent. Patient toxicity related to the microdose was monitored from the time of IV microdose until the patients received their first chemotherapy. […] The total radioactive dose given to a 75 kg patient after an IV microdose of [^14C]carboplatin is calculated to be 338 μCi. […]

[12] = Bladder cancer, individual patients

## N.N.O=C([O-])C1(C(=O)[O-])CCC1.[Pt+2] [carboplatin]
[1]
  IC50: 68 µM
[2]
  IC50: 44 µM
[3]
  IC50: 137 µM
[4]
  IC50: 250 µM
[5]
  IC50: 44 µM
[6]
  IC50: 250 µM
[7]
  carboplatin-DNA monoadducts remaining compared to the control: 4±3%
[8]
  carboplatin-DNA monoadducts remaining compared to the control: 56±8%
[9]; [12]
  4 h adducts PBMC: 1.113 per 10^8 nt and 0.265 per 10^8 nt and 0.545 per 10^8 nt and 0.184 per 10^8 nt and 0.193 per 10^8 nt and 1.004 per 10^8 nt and 0.600 per 10^8 nt and 1.399 per 10^8 nt and 0.599 per 10^8 nt and 0.239 per 10^8 nt and 0.421 per 10^8 nt
  24 h adducts PBMC: 0.443 per 10^8 nt and 0.081 per 10^8 nt and 0.930 per 10^8 nt and 0.154 per 10^8 nt and 0.283 per 10^8 nt and 0.968 per 10^8 nt and 0.499 per 10^8 nt and 0.485 per 10^8 nt and 0.329 per 10^8 nt and 0.978 per 10^8 nt
[9]; Hodgkin patient
  4 h adducts PBMC: 0.861 per 10^8 nt
  24 h adducts PBMC: 0.472 per 10^8 nt
[9]; NSCLC, individual patients
  4 h adducts PBMC: 0.447 per 10^8 nt and 0.662 per 10^8 nt and 0.386 per 10^8 nt and 0.587 per 10^8 nt and 0.234 per 10^8 nt and 2.214 per 10^8 nt
  24 h adducts PBMC: 0.837 per 10^8 nt and 1.3 per 10^8 nt and 0.454 per 10^8 nt and 0.942 per 10^8 nt and 0.342 per 10^8 nt and 0.232 per 10^8 nt
[9]
  lowest DNA monoadduct level observed: ~3.2 monoadducts per cell
[9]; 1.0×10^7 DPM/kg
  lowest DNA monoadduct level observed: 0.05 adducts per 10^8 nucleotides
[10]; storage at −20° C.
  loss of radiopurity per year: < 2%
[10]; upon freezing
  stability to freeze/thaw: no observed precipitation
[11]
  clinical side effects: None of the clinical side effects associated with standard therapeutic doses of carboplatin were observed
  tolerability of radiolabeled microdose: well tolerated
